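Following 48 hours of exposure in 96-well plates, responses at five concentrations were used to interpolate endpoints linearly. TGI denotes the concentration required for complete inhibition of growth.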
Tests used:
Experiment in all cases: NCI anticancer screen, dose series, 48 h
K-562 leukemia = tested on: K-562 leukemia
M14 melanoma = tested on: M14 melanoma
MCF7 breast = tested on: MCF7 breast
UACC-62 melanoma = tested on: UACC-62 melanoma
SK-MEL-2 melanoma = tested on: SK-MEL-2 melanoma
OVCAR-5 ovarian = tested on: OVCAR-5 ovarian
SF-295 CNS = tested on: SF-295 CNS
DU-145 prostate = tested on: DU-145 prostate
HOP-92 NSCLC = tested on: HOP-92 NSCLC
A549 NSCLC = tested on: A549 NSCLC
A498 renal = tested on: A498 renal
MDA-MB-435 = tested on: MDA-MB-435
TK-10 renal = tested on: TK-10 renal
IGROV1 ovarian = tested on: IGROV1 ovarian
NCI-H460 lung = tested on: NCI-H460 lung
HCC-2998 colon = tested on: HCC-2998 colon
UO-31 renal = tested on: UO-31 renal

For `O=c1c2ccccc2nc(-c2ccccc2)n1/N=C/c1ccccc1[N+](=O)[O-]`, the TGI (K-562 leukemia) was > 100 µM, the TGI (M14 melanoma) was > 100 µM and the TGI (MCF7 breast) was > 100 µM. For the same compound, the TGI (UACC-62 melanoma) was > 100 µM, the TGI (SK-MEL-2 melanoma) was > 100 µM and the TGI (OVCAR-5 ovarian) was > 100 µM. For the same compound, the TGI (SF-295 CNS) was > 83.3 µM, the TGI (DU-145 prostate) was > 100 µM and the TGI (HOP-92 NSCLC) was 98.4 µM. For the same compound, the TGI (A549 NSCLC) was > 100 µM, the TGI (A498 renal) was > 100 µM and the TGI (MDA-MB-435) was > 100 µM. The TGI (TK-10 renal) was > 59.6 µM, the TGI (IGROV1 ovarian) was > 100 µM and the TGI (NCI-H460 lung) was > 100 µM. For the same compound, the TGI (HCC-2998 colon) was > 100 µM.
With `C[C@H]1[C@H]2[C@H](C[C@@]3(C)C4=CC[C@H]5C(C)(C)[C@@H](OC6OCC(O)C(O)C6O)CC[C@@]56C[C@@]46CC[C@]23C)O[C@@]2(O)[C@@H]1OC(C)(C)[C@H]2O` (stereo partly drawn) the TGI (K-562 leukemia) was 50 µM, the TGI (M14 melanoma) was 10.7 µM and the TGI (MCF7 breast) was 1.72 µM. It also gave a TGI (UACC-62 melanoma) of 5.32 µM, a TGI (SK-MEL-2 melanoma) of 11.5 µM and a TGI (UO-31 renal) of 10.2 µM. It also gave a TGI (OVCAR-5 ovarian) of 11.5 µM, a TGI (SF-295 CNS) of 6.47 µM and a TGI (DU-145 prostate) of 1.91 µM. For the same compound, the TGI (HOP-92 NSCLC) was 3.28 µM, the TGI (A549 NSCLC) was 5.5 µM and the TGI (A498 renal) was 4.95 µM. The TGI (MDA-MB-435) was 2.17 µM, the TGI (TK-10 renal) was 3.95 µM and the TGI (IGROV1 ovarian) was 1.85 µM. For the same compound, the TGI (NCI-H460 lung) was 7.83 µM and the TGI (HCC-2998 colon) was 1.45 µM.
For `CN1C(=O)C(O)CC1c1ccccc1F` (stereo not drawn), the TGI (K-562 leukemia) was > 100 µM, the TGI (M14 melanoma) was > 100 µM and the TGI (MCF7 breast) was > 100 µM. For the same compound, the TGI (UACC-62 melanoma) was > 100 µM, the TGI (SK-MEL-2 melanoma) was > 100 µM and the TGI (UO-31 renal) was > 100 µM. For the same compound, the TGI (OVCAR-5 ovarian) was > 100 µM, the TGI (SF-295 CNS) was > 100 µM and the TGI (DU-145 prostate) was > 100 µM. For the same compound, the TGI (HOP-92 NSCLC) was > 100 µM, the TGI (A549 NSCLC) was > 100 µM and the TGI (A498 renal) was > 100 µM. For the same compound, the TGI (MDA-MB-435) was > 100 µM, the TGI (IGROV1 ovarian) was > 100 µM and the TGI (NCI-H460 lung) was > 100 µM. The TGI (HCC-2998 colon) was > 100 µM.
With `COC(=O)c1cc(C#N)[nH]c1-c1ccc(Br)s1` the TGI (K-562 leukemia) was > 48.4 µM, the TGI (M14 melanoma) was 22.9 µM and the TGI (MCF7 breast) was 18.6 µM. The TGI (UACC-62 melanoma) was 26 µM, the TGI (SK-MEL-2 melanoma) was 18.6 µM and the TGI (UO-31 renal) was 15.6 µM. It also gave a TGI (OVCAR-5 ovarian) of 24.1 µM, a TGI (SF-295 CNS) of 21.1 µM and a TGI (DU-145 prostate) of 31.6 µM. For the same compound, the TGI (HOP-92 NSCLC) was 15.3 µM, the TGI (A549 NSCLC) was 23 µM and the TGI (A498 renal) was 9.9 µM. The TGI (MDA-MB-435) was 34.5 µM, the TGI (TK-10 renal) was 25.7 µM and the TGI (IGROV1 ovarian) was 20.9 µM. It also gave a TGI (NCI-H460 lung) of 37.8 µM and a TGI (HCC-2998 colon) of 31.8 µM.
For `CCOC(=O)CCCc1cc(=O)c2c(C)c3[nH]c4ccc(Cl)cc4c3c(C)c2[nH]1`, the TGI (K-562 leukemia) was 79.6 µM, the TGI (M14 melanoma) was > 100 µM and the TGI (MCF7 breast) was 47.4 µM. For the same compound, the TGI (SK-MEL-2 melanoma) was 71.8 µM, the TGI (UO-31 renal) was 45.4 µM and the TGI (OVCAR-5 ovarian) was > 100 µM. For the same compound, the TGI (SF-295 CNS) was 67 µM, the TGI (DU-145 prostate) was 57.2 µM and the TGI (HOP-92 NSCLC) was 68.2 µM. For the same compound, the TGI (A549 NSCLC) was 43.5 µM, the TGI (A498 renal) was 36.5 µM and the TGI (MDA-MB-435) was 47.8 µM. The TGI (TK-10 renal) was 48.8 µM, the TGI (IGROV1 ovarian) was 86.4 µM and the TGI (NCI-H460 lung) was 32.7 µM. For the same compound, the TGI (HCC-2998 colon) was > 100 µM.
In the case of `C[n+]1c(-c2ccc(/C=N\Nc3ccnc(N/N=C/c4ccc(-c5cn6ccsc6[n+]5C)cc4)n3)cc2)cn2ccsc21`, the TGI (K-562 leukemia) is reported as > 100 µM, the TGI (M14 melanoma) is reported as 30.4 µM and the TGI (MCF7 breast) is reported as > 100 µM. For the same compound, the TGI (UACC-62 melanoma) was 76.4 µM, the TGI (UO-31 renal) was > 100 µM and the TGI (OVCAR-5 ovarian) was > 100 µM. The TGI (DU-145 prostate) was 78 µM, the TGI (HOP-92 NSCLC) was > 100 µM and the TGI (A549 NSCLC) was > 100 µM. The TGI (A498 renal) was 54.8 µM, the TGI (MDA-MB-435) was 6.94 µM and the TGI (TK-10 renal) was > 100 µM. For the same compound, the TGI (IGROV1 ovarian) was 65.4 µM, the TGI (NCI-H460 lung) was > 100 µM and the TGI (HCC-2998 colon) was 77.2 µM.
`Cn1c(=O)oc2cc(C(O)CN3CCN(Cc4ccc5c(c4)OCO5)CC3)ccc21` (stereo not drawn) was tested, and the TGI (K-562 leukemia) was > 100 µM, the TGI (M14 melanoma) was > 100 µM and the TGI (MCF7 breast) was > 100 µM. For the same compound, the TGI (UACC-62 melanoma) was > 100 µM, the TGI (UO-31 renal) was > 100 µM and the TGI (OVCAR-5 ovarian) was > 100 µM. For the same compound, the TGI (SF-295 CNS) was > 100 µM, the TGI (DU-145 prostate) was > 100 µM and the TGI (HOP-92 NSCLC) was > 100 µM. For the same compound, the TGI (A549 NSCLC) was > 100 µM, the TGI (A498 renal) was > 100 µM and the TGI (MDA-MB-435) was > 100 µM. The TGI (TK-10 renal) was > 100 µM, the TGI (IGROV1 ovarian) was > 100 µM and the TGI (NCI-H460 lung) was > 100 µM. The TGI (HCC-2998 colon) was > 100 µM.
